Details: Liquid, Vibrating tube method

CCC(C)O (stereo not drawn) [butan-2-ol]
Details | mass density [kg/m3]
343.15 K, 47992 kPa | 801
343.15 K, 49990 kPa | 802.3
343.15 K, 52005 kPa | 803.6
343.15 K, 55047 kPa | 805.7
343.15 K, 57941 kPa | 807.5
343.15 K, 59985 kPa | 808.8
343.15 K, 61963 kPa | 810
343.15 K, 64974 kPa | 811.9
343.16 K, 2963 kPa | 763.4
343.16 K, 66132 kPa | 812.5
348.15 K, 99 kPa | 755
348.15 K, 293 kPa | 755.2
348.15 K, 632 kPa | 755.6
348.15 K, 926 kPa | 756
348.15 K, 1007 kPa | 756
348.15 K, 1961 kPa | 757.1
348.15 K, 2971 kPa | 758.2
348.15 K, 4887 kPa | 760.3
348.15 K, 6901 kPa | 762.5
348.15 K, 8976 kPa | 764.6
348.15 K, 10049 kPa | 765.7
348.15 K, 12159 kPa | 767.9
348.15 K, 15134 kPa | 770.8
348.15 K, 18029 kPa | 773.4
348.15 K, 20029 kPa | 775.3
348.15 K, 22105 kPa | 777.1
348.15 K, 24943 kPa | 779.5
348.15 K, 27937 kPa | 782.1
348.15 K, 29922 kPa | 783.7
348.15 K, 32051 kPa | 785.4
348.15 K, 33089 kPa | 786.2
348.15 K, 33156 kPa | 786.2
348.15 K, 34089 kPa | 786.8
348.15 K, 35121 kPa | 787.6
348.15 K, 37976 kPa | 789.8
348.15 K, 40028 kPa | 791.3
348.15 K, 42107 kPa | 792.9
348.15 K, 44933 kPa | 794.9
348.15 K, 48043 kPa | 797.1
348.15 K, 50077 kPa | 798.4
348.15 K, 52078 kPa | 799.8
348.15 K, 54947 kPa | 801.7
348.15 K, 58004 kPa | 803.6
348.15 K, 60105 kPa | 805.1
348.15 K, 62134 kPa | 806.4
348.15 K, 64952 kPa | 808.1
348.15 K, 66089 kPa | 808.8
353.15 K, 101 kPa | 749.7
353.15 K, 309 kPa | 749.9
353.15 K, 488 kPa | 750.2
353.15 K, 937 kPa | 750.7
353.15 K, 997 kPa | 750.8
353.15 K, 2036 kPa | 752
353.15 K, 5052 kPa | 755.5
353.15 K, 7035 kPa | 757.6
353.15 K, 8919 kPa | 759.7
353.15 K, 10172 kPa | 761
353.15 K, 14941 kPa | 765.8
353.15 K, 20147 kPa | 770.7
353.15 K, 22188 kPa | 772.6
353.15 K, 25053 kPa | 775.1
353.15 K, 28045 kPa | 777.7
353.15 K, 30122 kPa | 779.4
353.15 K, 31946 kPa | 780.9
353.15 K, 32790 kPa | 781.6
353.15 K, 32795 kPa | 781.5
353.15 K, 34025 kPa | 782.5
353.15 K, 35037 kPa | 783.3
353.15 K, 39961 kPa | 787.1
353.15 K, 42055 kPa | 788.7
353.15 K, 45025 kPa | 790.9
353.15 K, 47906 kPa | 793
353.15 K, 51988 kPa | 795.8
353.15 K, 58003 kPa | 799.9
353.15 K, 62118 kPa | 802.6
353.15 K, 65015 kPa | 804.4
353.15 K, 66227 kPa | 805.2
353.16 K, 2973 kPa | 753.1
353.16 K, 12072 kPa | 762.9
353.16 K, 18090 kPa | 768.8
353.16 K, 38061 kPa | 785.7
353.16 K, 49998 kPa | 794.4
353.16 K, 54972 kPa | 797.7
353.16 K, 60035 kPa | 801.2
358.15 K, 94 kPa | 744.2
358.15 K, 317 kPa | 744.5
358.15 K, 531 kPa | 744.8
358.15 K, 912 kPa | 745.3
358.15 K, 2002 kPa | 746.6
358.15 K, 6978 kPa | 752.5
358.15 K, 8996 kPa | 754.7
358.15 K, 14843 kPa | 760.9
358.15 K, 20099 kPa | 766.2
358.15 K, 22025 kPa | 767.9
358.15 K, 25009 kPa | 770.7
358.15 K, 33055 kPa | 777.5
358.15 K, 33103 kPa | 777.7
358.15 K, 34173 kPa | 778.4
358.15 K, 35154 kPa | 779.2
358.15 K, 38016 kPa | 781.5
358.15 K, 40036 kPa | 783.1
358.15 K, 42070 kPa | 784.7
358.15 K, 44944 kPa | 786.8
358.15 K, 47921 kPa | 789
358.15 K, 50038 kPa | 790.5
358.15 K, 52069 kPa | 792
358.15 K, 55065 kPa | 794.1
358.15 K, 58024 kPa | 796.1
358.15 K, 60060 kPa | 797.4
358.15 K, 62217 kPa | 798.9
358.15 K, 65051 kPa | 800.7
358.15 K, 66079 kPa | 801.3
358.16 K, 997 kPa | 745.3
358.16 K, 2956 kPa | 747.8
358.16 K, 4886 kPa | 750.1
358.16 K, 10124 kPa | 755.9
358.16 K, 11961 kPa | 757.9
358.16 K, 17993 kPa | 764.1
358.16 K, 27942 kPa | 773.3
358.16 K, 30089 kPa | 775.1
358.16 K, 32063 kPa | 776.8
363.15 K, 99 kPa | 738.7
363.15 K, 349 kPa | 739
363.15 K, 512 kPa | 739.3
363.15 K, 910 kPa | 739.8
363.15 K, 3038 kPa | 742.5
363.15 K, 12190 kPa | 753.3
363.15 K, 25101 kPa | 766.2
363.15 K, 30034 kPa | 770.6
363.15 K, 33002 kPa | 773.1
363.15 K, 33042 kPa | 773.2
363.15 K, 34072 kPa | 774
363.15 K, 40041 kPa | 779
363.15 K, 42237 kPa | 780.7
363.15 K, 44948 kPa | 782.8
363.15 K, 48033 kPa | 785.1
363.15 K, 50015 kPa | 786.6
363.15 K, 52088 kPa | 788.1
363.15 K, 55038 kPa | 790.2
363.15 K, 57996 kPa | 792.2
363.15 K, 60085 kPa | 793.7
363.15 K, 62081 kPa | 795
363.15 K, 65016 kPa | 796.9
363.15 K, 66010 kPa | 797.6
363.16 K, 1038 kPa | 739.9
363.16 K, 2013 kPa | 741.2
363.16 K, 5065 kPa | 745
363.16 K, 7039 kPa | 747.4
363.16 K, 8975 kPa | 749.7
363.16 K, 10001 kPa | 750.8
363.16 K, 14664 kPa | 755.9
363.16 K, 17691 kPa | 759
363.16 K, 20116 kPa | 761.4
363.16 K, 22089 kPa | 763.4
363.16 K, 28014 kPa | 768.8
363.16 K, 32089 kPa | 772.4
363.16 K, 35096 kPa | 775
363.16 K, 37960 kPa | 777.4

Source: the NIST ThermoML archive (doi:10.1021/acs.jced.5b00934)
